# Experimental data: patent US10494357B2, “Tocotrienol derivatives, pharmaceutical composition and method of use in 5-lipoxygenase related diseases” (UNIVERSITÉ D'ANGERS, priority 2015, dated 2019)
# Read-outs that look alike come from different tables or passages of the source.
# Columns and labels:
# [1] = tested on: HepaRG® cells; test: Hepatotoxicity assay; type: cell-based; details: 48 h
# Protocol: HepaRG® cells were seeded at a density of 2.6×10^4 cells/cm^2 in Williams' E medium supplemented with 2 mM glutamax, 100 U/mL penicillin, 100 μg/mL streptomycin, 10% Hyclone fetal calf serum, 5 μg/mL insulin, and […] hydrocortisone hemisuccinate. At confluence, after 2 weeks, HepaRG® cells were shifted to the same medium supplemented with 1.7% dimethyl sulfoxide for 2 additional weeks in order to obtain confluent differentiated cultures containing equal proportions of hepatocyte-like and progenitors/primitive biliary-like cell. These differentiated hepatic cell cultures were used for analytical assays.
# Then, the cells were exposed to a tocotrienol derivative in Williams' E medium supplemented with 2% Hyclone fetal calf serum containing 0.2% dimethyl sulfoxide during 48 h.
# [2] = tested on: 5-LO product formation in neutrophils; test: 5-LO product formation in neutrophils; type: cell-based, human; details: for IC50: Homo sapiens, Neutrophil; for 5-LO product formation in neutrophils (A23187) residual activities [% vehicle control]: A23187 alone; for 5-LO product formation in neutrophils (AA + A23187) residual activities [% vehicle control]: A23187 plus 20 μM AA
# Protocol: Freshly isolated neutrophils (1×10^7/ml) were pre-incubated with the test compounds for 15 min at 37° C. Then, 5-LO product formation was started by addition of 2.5 μM Ca^2+-ionophore A23187 alone or A23187 plus 20 μM arachidonic acid (AA). The reaction was stopped after 10 min at 37° C. with 1 ml of methanol. Major 5-LO metabolites (LTB4 and its all-trans isomers and 5-H(P)ETE) were extracted and analyzed by HPLC as described (Werz: Blood 2002, 99, 1044-1052). Cysteinyl-LTs C4, D4 and E4 and oxidation products of LTB4 were not determined.
# [3] = biological target: T1, human recombinant 5-LO (Homo sapiens, UniProt P09917); test: Human recombinant 5-LO activity; type: biochemical
# T1 construct: made in house; inferred to be the same preparation
# T1 sequence (P09917 1-674): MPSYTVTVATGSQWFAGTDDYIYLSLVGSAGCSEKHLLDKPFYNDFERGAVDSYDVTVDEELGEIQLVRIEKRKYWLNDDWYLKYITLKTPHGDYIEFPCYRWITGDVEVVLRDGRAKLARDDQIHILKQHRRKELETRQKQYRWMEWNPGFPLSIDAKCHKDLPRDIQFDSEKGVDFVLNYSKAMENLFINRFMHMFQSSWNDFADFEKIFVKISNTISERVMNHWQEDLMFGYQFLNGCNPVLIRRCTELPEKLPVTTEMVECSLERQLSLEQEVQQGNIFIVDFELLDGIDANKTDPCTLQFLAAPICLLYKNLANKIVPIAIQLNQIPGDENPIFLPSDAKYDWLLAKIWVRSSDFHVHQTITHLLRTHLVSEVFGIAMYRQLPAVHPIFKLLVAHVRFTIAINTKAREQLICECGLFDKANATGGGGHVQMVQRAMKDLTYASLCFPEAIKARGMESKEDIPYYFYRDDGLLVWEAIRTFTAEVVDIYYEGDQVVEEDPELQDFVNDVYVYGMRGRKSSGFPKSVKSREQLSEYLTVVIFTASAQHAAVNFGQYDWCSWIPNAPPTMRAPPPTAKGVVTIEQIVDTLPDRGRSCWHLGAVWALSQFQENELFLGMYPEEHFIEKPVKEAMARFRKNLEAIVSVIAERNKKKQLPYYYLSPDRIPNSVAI
# Protocol: Methods for measuring the 5-LO activity are well-known from the skilled artisan. An example of such a method is disclosed in the Examples.
# Human recombinant 5-LO was pre-incubated with the test compounds for 10 min at 4° C. and pre-warmed for 30 s at 37° C. 5-LO product formation was initiated by addition of 2 mM CaCl2 and 20 μM arachidonic acid. After 10 min at 37° C., the reaction was terminated by addition of 1 ml ice-cold methanol.
# [4] = tested on: LTC4 formation; test: Zymosan-induced peritonitis in mice, LTC4 level in peritoneal exudate; type: in vivo; details: 10 mg/kg i.p. 30 min before zymosan, measured 30 min after zymosan injection
# Protocol: Zymosan was used to trigger peritonitis in mice pre-treated with a-amplexichromanol or Zileuton, each at a dose of 10 mg/kg. The resulting LTC4 levels in the peritoneal exudate were measured 30 min after zymosan injection.
# α-amplexichromanol (10 mg/kg) or vehicle (0.5 ml of 0.9% saline solution containing 2% DMSO) were given i.p. 30 min before zymosan i.p. injection (0.5 ml of a 2 mg/ml suspension in 0.9% w/v saline). Mice were killed by inhalation of CO2 at the indicated time points followed by a peritoneal lavage with 3 ml of cold PBS pH 7.4. Exudates were collected. After centrifugation of the exudates (18,000× g, 5 min, 4° C.), the amounts of cysteinyl-LTs were analyzed in the supernatant by enzyme immunoassay (Enzo Life Sciences GmbH, Lörrach, Germany) according to manufacturer's instructions.
# [5] = tested on: IL-1β; test: IL-1β release from LPS-stimulated monocytes (ELISA); type: cell-based; details: LPS 10 ng/ml
# Protocol: (§1) First, different concentrations of δ-amplexichromanol (0.1; 1 and 10 μM) were added to the stimulated monocytes.
# (§2) Secondly, monocytes were stimulated with lipopolysaccharide (LPS, 10 ng/ml for 4-18 h) for inducing the formation of pro-inflammatory cytokines.
# (§3) Finally, the resulting levels of proinflammatory cytokines were measured by ELISA. Dexamethasone (1 μM) was used as control.
# [6] = tested on: IL-8; test: IL-8 release from LPS-stimulated monocytes (ELISA); type: cell-based; details: LPS 10 ng/ml
# Protocol: as §1, §2, §3
# [7] = tested on: TNF-α; test: TNF-α release from LPS-stimulated monocytes (ELISA); type: cell-based; details: LPS 10 ng/ml
# Protocol: as §1, §2, §3
# [8] = human recombinant 5-LO, read-out: IC50 (nM) 5-LO activity
IC50 [2] [nM],"IC50 [3, 8] [nM]",SMILES,Number of cells ([1]; 0.1 μM),Number of cells ([1]; 1 μM),Number of cells ([1]; 10 μM),further results
67 ± 54,110,"C/C(=C\CC/C(C)=C/CCC1(C)CCc2cc(O)c(C)c(C)c2O1)CCC=C(CO)CO (centres unmarked) [Compound 34, 2-((4E,8E)-11-(6-hydroxy-2,7,8-trimethylchroman-2-yl)-4,8-dimethylundeca-4,8-dien-1-ylidene)propane-1,3-diol]",4212,4562,4677,
41 ± 1,,"CC(=O)N(O)C/C=C/c1cccc(Oc2ccccc2)c1 [BWA4C, N-RE)-3-(3-phenoxyphenye-prop-2-enyllacetohydroxamic acid, reference compound]",,,,
140 ± 21,120 ± 29,"C/C(=C/CC/C(C)=C/CC/C(C)=C/CCC1(C)CCc2cc(O)c(C)c(C)c2O1)CO (centres unmarked) [Compound 33, 2-((3E,7E,11Z)-13-hydroxy-4,8,12-trimethyltrideca-3,7,11-trien-1-yl)-2,7,8-trimethylchroman-6-ol]",4363,4412,4610,
19 ± 4,106 ± 29,"C/C(=C\CC/C(C)=C/CCC1(C)CCc2c(C)c(O)c(C)c(C)c2O1)CCC=C(CO)CO (centres unmarked) [Compound 1, 2-((4E,8E)-11-(6-hydroxy-2,5,7,8-tetramethylchroman-2-yl)-4,8-dimethylundeca-4,8-dien-1-ylidene)propane-1,3-diol]",4389,4705,4702,LTC4 level in the peritoneal exudate [4]: the same than the LTC4 level obtained by Zileuton
,,"CC(c1cc2ccccc2s1)N(O)C(N)=O (centres unmarked) [Zileuton, reference compound]",4313,4244,4554,
220 ± 40,137 ± 29,"C/C(=C/CC/C(C)=C/CC/C(C)=C/CCC1(C)CCc2cc(O)cc(C)c2O1)CO (centres unmarked) [Compound 23, 2-((3E,7E,11Z)-13-hydroxy-4,8,12-trimethyltrideca-3,7,11-trien-1-yl)-2,8-dimethylchroman-6-ol]",,,,
,,C[C@@H]1C[C@H]2[C@@H]3CCC4=CC(=O)C=C[C@]4(C)[C@@]3(F)[C@@H](O)C[C@]2(C)[C@@]1(O)C(=O)CO [dexamethasone],,,,IL-1β release (%) ([5]; 1 μM): 68.7 ± 2.4%; IL-1β release (%) ([5]; 10 μM): 49.9 ± 4.8%; IL-8 release (%) ([6]; 1 μM): 83.5 ± 3.2%; IL-8 release (%) ([6]; 10 μM): 30.6 ± 1.5%; TNF-α release (%) ([7]; 1 μM): 42.2 ± 0.8%; TNF-α release (%) ([7]; 10 μM): 13.3 ± 2.6%
419 ± 33,148 ± 35,"C/C(=C\CC/C(C)=C/CCC1(C)CCc2cc(O)cc(C)c2O1)CCC=C(CO)CO (centres unmarked) [Compound 26, 2-((4E,8E)-11-(6-hydroxy-2,8-dimethylchroman-2-yl)-4,8-dimethylundeca-4,8-dien-1-ylidene)propane-1,3-diol]",,,,IL-1β release (%) ([5]; 1 μM): 86 ± 11%; IL-8 release (%) ([6]; 1 μM): n.i.^a; TNF-α release (%) ([7]; 1 μM): n.i.^a; 5-LO product formation in neutrophils (A23187) residual activities [% vehicle control] ([2]; 0.1 μM): 17.4 ± 8.8 % vehicle control; 5-LO product formation in neutrophils (AA + A23187) residual activities [% vehicle control] ([2]; 0.1 μM): n.i.^a; 5-LO product formation in neutrophils (A23187) residual activities [% vehicle control] ([2]; 1 μM): 10.0 ± 2.8 % vehicle control; 5-LO product formation in neutrophils (AA + A23187) residual activities [% vehicle control] ([2]; 1 μM): 15.4 ± 4.4 % vehicle control; 5-LO product formation in neutrophils (A23187) residual activities [% vehicle control] ([2]; 10 μM): 0.0 ± 0.0 % vehicle control; 5-LO product formation in neutrophils (AA + A23187) residual activities [% vehicle control] ([2]; 10 μM): 0.6 ± 0.6 % vehicle control

SMILES,IC50 [2] [nM],"IC50 [3, 8] [nM]",Number of cells ([1]; 0.1 μM),Number of cells ([1]; 1 μM),Number of cells ([1]; 10 μM),further results
"C/C(=C\CC/C(C)=C/CCC1(C)CCc2c(C)c(O)cc(C)c2O1)CCC=C(CO)CO (centres unmarked) [Compound 9, 2-((4E,8E)-11-(6-hydroxy-2,5,8-trimethylchroman-2-yl)-4,8-dimethylundeca-4,8-dien-1-ylidene)propane-1,3-diol]",114 ± 35,,4429,4436,4785,IC50 [3]: 91 ± 15 nM
